Reference: patent US7807712B2, “Oxy substituted chalcones as antihyperglycemic and antidyslipidemic agents” (priority 2004, dated 2010)
Where two headings read alike, the source gives them in different places.

Legend:
[1] = test system: sucrose loaded rats; experiment: Sucrose loaded rat model (SLM), antihyperglycemic activity; type: in vivo, rat (Charles Foster/Wistar); details: for inhibition in vivo at 100 mg/kg: Rattus norvegicus, 2 h, 100 mg/kg oral, sucrose load 10.0 g/kg, AUC vs control, 30-120 min, read-out: % Fall in blood glucose levels SLM; for activity in SLM model: summary statement
Experimental: Male albino rats of Charles Foster/Wistar strain of average body weight 160±20 g were selected for this study. The blood glucose level of each animal was checked by glucometer using glucostrips (Boehringer Mannheim) after 16 h starvation. Animals showing blood glucose levels between 3.33 to 4.44 mM (60 to 80 mg/dl) were divided into groups of five to six animals in each. Animals of experimental group were administered suspension of the desired synthetic compound orally (made in 1.0% gum acacia) at a dose of 100-mg/kg-body weight. Animals of control group were given an equal amount of 1.0% gum acacia. A sucrose load (10.0 g/kg) was given to each animal orally exactly after 30 min post administration of the test sample/vehicle. Blood glucose profile of each rat was again determined at 30, 60, 90 and 120 min post administration of sucrose by glucometer. Food but not water was withheld from the cages during the course of experimentation. Quantitative glucose tolerance of each animal was calculated by Area Under Curve (AUC) method (Prism Software). Comparing the AUC of experimental and control groups determined the percentage antihyperglycemic activity. Statistical comparison was made by Dunnett's test.

[2] = test system: streptozotocin-induced diabetic rats; experiment: Sucrose-challenged streptozotocin-induced diabetic rats (STZ-S), antihyperglycemic activity; type: in vivo, rat (Sprague Dawley); details: for activity in STZ model: summary statement
Experimental: Male albino rats of Sprague Dawley strain of body weight […] were selected for this study. Streptozotocin (Sigma, USA) was dissolved in 100 mM citrate buffer pH 4.5 and calculated amount of the fresh solution was injected to overnight fasted rats (45 mg/kg) intraperitoneally. Blood glucose level was checked 48 h later by glucostrips and animals showing blood glucose values between 144 to 270 mg/dl (8 to 15 mM) were included in the experiment and termed diabetic. The diabetic animals were divided into groups consisting of five to six animals in each group. Animals of experimental groups were administered suspension of the desired test samples orally (made in 1.0% gum acacia) at a dose of 100-mg/kg-body weight. Animals of control group were given an equal amount of 1.0% gum acacia. A sucrose load of 2.5-g/kg body weight was given after 30 minutes of compound administration. After 30 minutes of post sucrose load blood glucose level was again checked by glucostrips at 30, 60, 90, 120, 180, 240, 300 min and at 24 h, respectively. Animals not found diabetic after 24 hours post treatment of the test sample were not considered and omitted from the calculations and termed as non-responders. […] Food but not water was withheld from the cages during the experimentation. Comparing the AUC of experimental and control groups determined the percent antihyperglycemic activity. Statistical comparison between groups was made by Student's ‘t’ test.

[3] = test system: triton WR-1339 induced hyperlipidemic rats; experiment: Triton model, antidyslipidemic activity; type: in vivo, rat (Charles foster); details: Rattus norvegicus, 100 mg/kg oral
Experimental: Male Charles foster rats weighing 200-225 g were divided into control, hyperlipidemic and hyperlipidemic plus drug treated groups containing six animals in each group. Hyperlipidemia was induced by administration of triton WR-1339 (200 mg/kg i.p.). All animals were maintained on a special pellet diet and water ad libitum. Compounds and standard drug were macerated with 0.2% aqueous gum acacia suspension. The suspension was fed orally at the dose of 100 mg/kg simultaneously with triton in drug treated group. The animals of control group received the same amount of gum acacia by similar route of administration. At the end of the experiment, after 18 h, blood was withdrawn from retro orbital plexus and plasma was used for the assay of total cholesterol, phospholipid and triglycerides.
Cholesterol was estimated using the kit provided by Roche Diagnostics. Cholesterol esters are enzymatically hydrolyzed by cholesterol esterase (CE) to cholesterol and free fatty acids. Free cholesterol, including that originally present, is then oxidized by cholesterol oxidase (CO) to cholest-4-en-3-one and hydrogen peroxide. The hydrogen peroxide combines with hydroxy benzoic acid (HBA) and 4-aminoantipyrine (4AAA) in the presence of peroxidase (POD) to form a chromophore (quinoneimine dye), which may be quantitated at 500-505 nm. The intensity of red colour formed is directly proportional to the concentration of total cholesterol in the specimen and measured spectrophotometrically (Searcy, C. L. Diagnostic Biochemistry, 1969, McGraw Hill, New York; Ellefson, R. D.; Caraway, W. T. Fundamentals of clinical chemistry, 1976, Ed Tietz N W, 506-515.)
Triglycerides were estimated using the kit provided by Roche Diagnostics. Lipoprotein lipase hydrolyses triglycerides to yield glycerol and fatty acids. Glycerol kinase converts glycerol to glycerol-3-phosphate, which is oxidized by glycerol phosphate oxidase to dihydroxy acetone phosphate and hydrogen peroxide. In the presence of peroxidase, hydrogen peroxide oxidatively couples with 4-aminoantipyrine and 4-chloro phenol to produce red quinonimine dye. The intensity of red colour formed is directly proportional to the concentration of triglycerides in the specimen and is measured by photometrically (Wahlefeld, A. W.; Bergmeyer, H. U. Ed. Methods of enzymatic analysis, 2nd English edition, New York, N.Y., Academic press inc, 1831-1840.).
Serum (0.2 mL) and perchloric acid (1.0 mL) was digested at 180° C. for 1-1.5 h till the solution became colorless. The liberated inorganic phosphate (Pi) was measured by the method of Fiske and Subbarow (Fiske, C. H.; Subbarow, V. J. Biol. Chem. 1925, 66, 375.). 1 mL of 2.5% ammonium molybdate (prepared in 5 N sulphuric acid) and 0.5 mL reducing agent (4-amino naphthol sulphonic acid, 0.2%), sodium metabisulphite (2.4% w/v in distilled water) was added to the above tubes and mixed well. The reaction mixture was […] with 2.5 mL of triple distilled water and kept at 60° C. in water bath for 20 min. For standard, an appropriate amount of potassium dihydrogen phosphate dissolved in triple distilled water containing 2-10 μg phosphorus (Pi) was run simultaneously with the experiment tubes. The optical density of the blue colour was recorded at 620 nm against reagent blank. The values of Pi were converted into phospholipid by multiplying with 25 (a constant calibrated from Pi value of lecithin).

[4] = 100 mg/kg oral, sucrose load 2.5 g/kg, AUC vs control
[5] = plasma phospholipid after 18 h, read-out: % Fall in lipid levels (Triton model) PL
[6] = plasma total cholesterol after 18 h, read-out: % Fall in lipid levels (Triton model) TC
[7] = plasma triglycerides after 18 h, read-out: % Fall in lipid levels (Triton model) TG

## COc1ccc(/C=C/C(=O)c2ccc(OCC(O)CN3CCN(c4ccccc4)CC3)cc2)cc1OC (centres unmarked) [Compound 18, 3,4-Dimethoxy-4′-[2-hydroxy-3-(4-phenylpiperazin-1-yl)-propoxy]-chalcone]
[1]
  inhibition in vivo at 100 mg/kg: 15.4%
  activity in SLM model: significant results
[2]; [4]
  % Fall in blood glucose levels STZ-S 24 h: 20.3%
[2]
  activity in STZ model: significant results
[3]; [5]
  inhibition in vivo at 100 mg/kg: 8%
[3]; [6]
  inhibition in vivo at 100 mg/kg: 20%
[3]; [7]
  inhibition in vivo at 100 mg/kg: 12%

## CC(C)(C)NCC(O)COc1ccc(C(=O)/C=C/c2ccc3c(c2)OCO3)cc1 (centres unmarked) [Compound 34, 4′-[^3-tert-Butylamino-2-hydroxy-propoxy]-3,4-methylenedioxy-chalcone]
[1]
  inhibition in vivo at 100 mg/kg: 21.1%
  activity in SLM model: significant results
[2]; [4]
  % Fall in blood glucose levels STZ-S 24 h: 23.0%
[2]
  activity in STZ model: significant results
[3]; [5]
  inhibition in vivo at 100 mg/kg: 20%
[3]; [6]
  inhibition in vivo at 100 mg/kg: 26%
[3]; [7]
  inhibition in vivo at 100 mg/kg: 18%

## O=C1NC(=O)/C(=C\c2ccc(OCCCCCOc3cccc(C(=O)/C=C/c4ccc5c(c4)OCO5)c3)cc2)S1 [Compound 46, 3,4-Methylenedioxy-3′-{5-[4-(thiazolidin-2,4-dione-5-ylidinemethyl)-phenoxy]-pentyloxy}-chalcone]
[1]
  inhibition in vivo at 100 mg/kg: 13.4%
[2]; 100 mg/kg oral, sucrose load 2.5 g/kg, AUC vs control, 5 h
  % Fall in blood glucose levels STZ-S 5 h: 11.8%
[2]; [4]
  % Fall in blood glucose levels STZ-S 24 h: 7.18%
[3]; [5]
  inhibition in vivo at 100 mg/kg: 20%
[3]; [6]
  inhibition in vivo at 100 mg/kg: 13%
[3]; [7]
  inhibition in vivo at 100 mg/kg: 20%
